Test results published in ChEMBL document CHEMBL1201862, “PubChem BioAssay data set” (2004).
The source made the active and inactive calls.

Legend:
Kallikrein-7 = Kallikrein-7 (Homo sapiens, UniProt P49862); test: Fluorescence Intensity-based biochemical primary high throughput dose response assay to identify activators of kallikrein-7 (K7) zymogen.
[1] = molecular target: T1, Rac GTPase-activating protein 1 (Homo sapiens, UniProt Q9H0H5); test: blockers of MgcRacGAP-driven Rac1 GTP hydrolysis – biochemical, ADP Hunter fluorescence, primary and confirmatory, confirmation (AID 624330); assay type: functional
T1 sequence (Q9H0H5 whole entry): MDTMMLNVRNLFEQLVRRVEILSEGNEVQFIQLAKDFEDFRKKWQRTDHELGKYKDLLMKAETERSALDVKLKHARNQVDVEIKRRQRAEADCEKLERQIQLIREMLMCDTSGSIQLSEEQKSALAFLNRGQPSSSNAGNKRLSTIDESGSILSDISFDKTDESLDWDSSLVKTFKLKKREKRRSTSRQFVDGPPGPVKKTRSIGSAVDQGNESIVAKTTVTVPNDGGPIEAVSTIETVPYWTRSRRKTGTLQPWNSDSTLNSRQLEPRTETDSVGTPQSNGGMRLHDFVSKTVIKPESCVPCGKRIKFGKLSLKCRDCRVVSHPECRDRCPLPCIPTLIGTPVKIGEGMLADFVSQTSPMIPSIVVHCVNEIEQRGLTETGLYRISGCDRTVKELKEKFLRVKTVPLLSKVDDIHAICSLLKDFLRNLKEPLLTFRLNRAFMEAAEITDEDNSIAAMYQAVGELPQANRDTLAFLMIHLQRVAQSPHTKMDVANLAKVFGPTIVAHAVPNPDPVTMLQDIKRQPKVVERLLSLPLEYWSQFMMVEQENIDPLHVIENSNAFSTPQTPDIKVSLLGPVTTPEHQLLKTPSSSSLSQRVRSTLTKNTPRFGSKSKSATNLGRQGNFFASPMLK

[2] = HGIII-sPLA2 enzyme inhibition potency – biochemical, QFRET, IC50, dose response (AID 743457);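 further: green fluorescence rise as the enzyme cleaves BODIPY PC-A2 in liposomes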
Nonstructural protein 1 = Nonstructural protein 1 (Influenza A virus, UniProt Q194T2); assay type: functional, Influenza A virus (A/California/07/2009(H1N1))
Sequence of Nonstructural protein 1 (Q194T2 whole entry): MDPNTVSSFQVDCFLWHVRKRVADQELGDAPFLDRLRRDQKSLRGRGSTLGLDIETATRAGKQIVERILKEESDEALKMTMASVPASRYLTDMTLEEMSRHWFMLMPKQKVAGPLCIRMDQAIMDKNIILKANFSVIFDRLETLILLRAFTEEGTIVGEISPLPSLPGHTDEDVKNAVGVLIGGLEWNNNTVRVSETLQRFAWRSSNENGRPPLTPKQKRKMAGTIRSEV

fMet-Leu-Phe receptor = molecular target: T2, fMet-Leu-Phe receptor (Homo sapiens, UniProt P21462); test: formyl peptide receptor binders – dose response (AID 519); assay type: functional
T2 sequence (P21462 whole entry): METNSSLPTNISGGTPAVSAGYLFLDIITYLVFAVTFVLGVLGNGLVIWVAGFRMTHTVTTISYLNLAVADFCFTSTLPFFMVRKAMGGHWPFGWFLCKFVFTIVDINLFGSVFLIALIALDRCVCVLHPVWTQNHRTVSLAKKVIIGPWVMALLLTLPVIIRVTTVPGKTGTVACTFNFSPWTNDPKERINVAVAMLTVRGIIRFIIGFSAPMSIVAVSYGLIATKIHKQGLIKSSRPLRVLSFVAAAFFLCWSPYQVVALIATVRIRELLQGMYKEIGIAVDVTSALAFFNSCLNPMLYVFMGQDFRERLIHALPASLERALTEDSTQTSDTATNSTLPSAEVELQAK

[3] = OVCAR-3 cell viability loss – plate reader, dry powder samples, PAX8 inhibitor project, dose response (AID 743044); assay type: functional, cell-based
[4] = OVCAR8 cell viability loss – plate reader, dry powder samples, PAX8 project, dose response (AID 743197); assay type: functional, cell-based; conditions: OVCAR-8
Paired box protein Pax-8 = Paired box protein Pax-8 (Homo sapiens, UniProt Q06710); test: PAX8 transcriptional activity inhibition in RMG-I – RMG-I cells, luciferase, cherry-pick, dose response (AID 687027); assay type: functional, cell-based;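 further: luciferase reporter driven by Pax8 target thyroperoxidase promoter measured by SteadyGlo luminescence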
Sequence of Paired box protein Pax-8 (Q06710 whole entry): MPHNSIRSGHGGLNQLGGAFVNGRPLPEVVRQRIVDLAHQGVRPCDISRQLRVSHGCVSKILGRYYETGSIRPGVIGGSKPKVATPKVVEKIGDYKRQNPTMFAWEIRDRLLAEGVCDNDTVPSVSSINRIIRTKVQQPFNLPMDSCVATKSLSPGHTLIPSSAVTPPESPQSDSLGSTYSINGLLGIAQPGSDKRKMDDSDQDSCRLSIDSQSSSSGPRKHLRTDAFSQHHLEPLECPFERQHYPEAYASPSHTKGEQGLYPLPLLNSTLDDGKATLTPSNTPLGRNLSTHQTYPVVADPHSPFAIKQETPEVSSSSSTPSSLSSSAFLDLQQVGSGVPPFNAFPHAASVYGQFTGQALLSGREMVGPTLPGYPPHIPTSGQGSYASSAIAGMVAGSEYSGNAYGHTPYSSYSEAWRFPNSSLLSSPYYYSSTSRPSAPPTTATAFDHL

[5] = IGROV1 cell killing – plate reader, dry powder samples, PAX8 inhibitor project, dose response (AID 743043); assay type: functional, cell-based; conditions: IGROV-1
[6] = toxicity toward immortalized ovarian surface epithelium – cell-based, plate reader, dry powder samples, cytotoxicity control for PAX8 inhibitor project, dose response (AID 743045); assay type: functional
[7] = A2780 cell killing – plate reader, dry powder samples, cytotoxicity control, dose response (AID 743046); assay type: functional, cell-based
[8] = molecular target: Peroxisome proliferator-activated receptor gamma/Nuclear receptor coactivator 3 (Homo sapiens, UniProt P37231); test: TR-FRET dose response biochemical High Throughput Screening assay for agonists of the steroid receptor coactivator 3 (SRC-3) recruitment by the peroxisome proliferator-activated receptor gamma (PPAR gamma): non-selective agonists. [Related pubchem assays: 1301 (Confirmation screen.), 1048 (Primary screen.)]; assay type: functional
Sequence of Peroxisome proliferator-activated receptor gamma/Nuclear receptor coactivator 3 (P37231 whole entry): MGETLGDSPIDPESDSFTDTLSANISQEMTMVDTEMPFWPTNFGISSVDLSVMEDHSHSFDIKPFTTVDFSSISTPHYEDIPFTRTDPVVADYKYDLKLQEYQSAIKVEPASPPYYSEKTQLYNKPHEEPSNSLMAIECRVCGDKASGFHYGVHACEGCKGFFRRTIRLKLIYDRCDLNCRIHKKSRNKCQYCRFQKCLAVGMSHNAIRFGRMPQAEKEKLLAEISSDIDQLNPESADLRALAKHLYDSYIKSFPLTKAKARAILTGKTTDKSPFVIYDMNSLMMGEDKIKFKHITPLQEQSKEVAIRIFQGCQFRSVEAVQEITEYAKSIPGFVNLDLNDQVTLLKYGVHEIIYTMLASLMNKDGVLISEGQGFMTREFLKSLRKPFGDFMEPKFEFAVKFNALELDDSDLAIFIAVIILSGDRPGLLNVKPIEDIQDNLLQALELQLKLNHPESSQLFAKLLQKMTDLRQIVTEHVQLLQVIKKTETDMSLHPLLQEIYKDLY
Sequence of Peroxisome proliferator-activated receptor gamma/Nuclear receptor coactivator 3 (Q9Y6Q9 whole entry, further chain): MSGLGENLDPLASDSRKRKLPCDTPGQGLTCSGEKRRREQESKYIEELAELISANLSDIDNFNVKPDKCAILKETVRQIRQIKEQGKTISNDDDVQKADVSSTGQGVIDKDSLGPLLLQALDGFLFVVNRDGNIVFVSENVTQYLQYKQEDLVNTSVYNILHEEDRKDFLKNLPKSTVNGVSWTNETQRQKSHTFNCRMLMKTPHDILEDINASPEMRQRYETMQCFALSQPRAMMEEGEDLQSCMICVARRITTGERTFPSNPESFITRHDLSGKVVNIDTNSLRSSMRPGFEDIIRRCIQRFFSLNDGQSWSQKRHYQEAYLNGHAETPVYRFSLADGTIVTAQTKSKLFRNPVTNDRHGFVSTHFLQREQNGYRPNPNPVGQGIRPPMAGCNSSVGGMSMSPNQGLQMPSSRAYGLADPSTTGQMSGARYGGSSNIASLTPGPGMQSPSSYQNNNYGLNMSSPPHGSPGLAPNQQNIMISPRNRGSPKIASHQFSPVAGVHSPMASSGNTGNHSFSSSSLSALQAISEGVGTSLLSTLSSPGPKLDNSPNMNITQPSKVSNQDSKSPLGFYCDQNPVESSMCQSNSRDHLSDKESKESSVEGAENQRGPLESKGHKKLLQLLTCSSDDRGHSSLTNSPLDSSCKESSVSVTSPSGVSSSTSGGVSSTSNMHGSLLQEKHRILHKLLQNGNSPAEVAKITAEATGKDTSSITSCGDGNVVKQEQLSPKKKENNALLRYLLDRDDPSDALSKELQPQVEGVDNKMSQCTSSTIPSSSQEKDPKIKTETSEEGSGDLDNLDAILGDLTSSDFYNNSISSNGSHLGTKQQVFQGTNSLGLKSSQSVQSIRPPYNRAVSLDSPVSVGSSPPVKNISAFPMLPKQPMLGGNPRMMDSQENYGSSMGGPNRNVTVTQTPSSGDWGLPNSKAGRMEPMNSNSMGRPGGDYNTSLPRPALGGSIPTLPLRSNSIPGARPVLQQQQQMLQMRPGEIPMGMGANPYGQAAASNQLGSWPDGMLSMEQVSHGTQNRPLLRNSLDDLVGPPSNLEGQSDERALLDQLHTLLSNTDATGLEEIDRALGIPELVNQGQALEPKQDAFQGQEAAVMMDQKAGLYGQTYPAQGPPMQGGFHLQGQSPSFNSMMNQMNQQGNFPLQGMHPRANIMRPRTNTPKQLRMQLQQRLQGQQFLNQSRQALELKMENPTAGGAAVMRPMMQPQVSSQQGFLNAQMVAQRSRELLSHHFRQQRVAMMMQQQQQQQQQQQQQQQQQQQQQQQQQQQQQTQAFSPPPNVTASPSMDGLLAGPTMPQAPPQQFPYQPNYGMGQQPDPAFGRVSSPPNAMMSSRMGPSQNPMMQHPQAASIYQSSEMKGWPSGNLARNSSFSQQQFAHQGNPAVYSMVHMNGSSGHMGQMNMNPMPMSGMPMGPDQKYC

[9] = molecular target: Peroxisome proliferator-activated receptor gamma/Nuclear receptor coactivator 2 (Homo sapiens, UniProt P37231); test: (§1) TR-FRET dose response biochemical High Throughput Screening assay for agonists of the steroid receptor coactivator 2 (SRC-2) recruitment by the peroxisome proliferator-activated receptor gamma (PPAR gamma): non-selective agonists. [Related pubchem assays: 1297, 1032 ]; assay type: functional
Sequence of Peroxisome proliferator-activated receptor gamma/Nuclear receptor coactivator 2 (P37231 whole entry): as the sequence (P37231 whole entry) above
Sequence of Peroxisome proliferator-activated receptor gamma/Nuclear receptor coactivator 2 (Q15596 whole entry, further chain): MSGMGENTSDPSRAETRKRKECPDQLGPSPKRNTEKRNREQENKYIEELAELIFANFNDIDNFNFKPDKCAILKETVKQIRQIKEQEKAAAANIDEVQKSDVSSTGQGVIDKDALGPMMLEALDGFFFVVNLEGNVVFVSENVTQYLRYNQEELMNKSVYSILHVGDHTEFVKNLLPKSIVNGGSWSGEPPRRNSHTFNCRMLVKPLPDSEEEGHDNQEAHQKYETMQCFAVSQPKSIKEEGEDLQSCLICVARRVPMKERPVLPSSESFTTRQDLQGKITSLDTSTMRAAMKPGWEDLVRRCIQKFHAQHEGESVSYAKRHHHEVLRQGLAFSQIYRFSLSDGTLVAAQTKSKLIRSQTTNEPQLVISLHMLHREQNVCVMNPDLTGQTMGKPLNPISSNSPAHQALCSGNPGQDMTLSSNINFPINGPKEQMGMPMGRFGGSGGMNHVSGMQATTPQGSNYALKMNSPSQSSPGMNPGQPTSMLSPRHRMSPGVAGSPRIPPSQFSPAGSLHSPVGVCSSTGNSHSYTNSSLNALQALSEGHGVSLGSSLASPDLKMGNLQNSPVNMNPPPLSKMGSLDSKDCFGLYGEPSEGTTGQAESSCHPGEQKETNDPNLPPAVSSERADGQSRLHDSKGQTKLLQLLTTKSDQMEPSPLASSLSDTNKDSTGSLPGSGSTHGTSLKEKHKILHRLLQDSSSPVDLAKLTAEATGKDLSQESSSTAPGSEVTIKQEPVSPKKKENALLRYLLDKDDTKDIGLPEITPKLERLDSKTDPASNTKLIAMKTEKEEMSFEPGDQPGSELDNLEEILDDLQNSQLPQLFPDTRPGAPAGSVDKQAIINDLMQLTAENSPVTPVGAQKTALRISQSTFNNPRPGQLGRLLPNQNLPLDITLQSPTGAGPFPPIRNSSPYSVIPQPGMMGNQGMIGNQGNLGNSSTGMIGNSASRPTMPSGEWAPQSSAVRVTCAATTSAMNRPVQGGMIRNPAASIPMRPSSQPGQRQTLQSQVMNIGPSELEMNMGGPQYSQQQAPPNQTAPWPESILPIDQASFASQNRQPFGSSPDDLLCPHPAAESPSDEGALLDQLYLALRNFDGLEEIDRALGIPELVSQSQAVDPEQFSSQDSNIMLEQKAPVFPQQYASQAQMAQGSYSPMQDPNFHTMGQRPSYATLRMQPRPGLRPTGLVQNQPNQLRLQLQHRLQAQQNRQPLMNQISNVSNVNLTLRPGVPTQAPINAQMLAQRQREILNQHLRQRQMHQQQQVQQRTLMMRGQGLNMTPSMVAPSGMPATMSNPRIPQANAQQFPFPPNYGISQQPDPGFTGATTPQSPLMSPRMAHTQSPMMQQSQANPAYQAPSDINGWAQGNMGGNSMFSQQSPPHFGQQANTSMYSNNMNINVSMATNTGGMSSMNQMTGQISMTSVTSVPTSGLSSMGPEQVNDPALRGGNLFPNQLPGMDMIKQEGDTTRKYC

[10] = molecular target: Peroxisome proliferator-activated receptor gamma/Nuclear receptor coactivator 1 (Homo sapiens, UniProt P37231); test: as §1, with “1 (SRC-1)” for “2 (SRC-2)”, “assays (depositor defined):AID1300, AID1808, AID504735, AID631]” for “assays: 1297, 1032 ]”; assay type: protein assay

Sequence of Kallikrein-7 (P49862 whole entry): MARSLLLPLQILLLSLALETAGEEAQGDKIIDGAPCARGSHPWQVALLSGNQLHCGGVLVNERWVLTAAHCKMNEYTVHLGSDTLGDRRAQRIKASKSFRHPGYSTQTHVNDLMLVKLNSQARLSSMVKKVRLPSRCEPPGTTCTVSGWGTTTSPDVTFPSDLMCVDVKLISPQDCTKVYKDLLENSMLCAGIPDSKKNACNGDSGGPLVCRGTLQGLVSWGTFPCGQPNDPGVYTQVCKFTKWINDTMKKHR

Structure (SMILES): N=c1c(C(=O)NCC2CCCO2)cc2c(=O)n3ccccc3nc2n1C1CCCC1 (stereo unspecified)
- EC50 (Kallikrein-7): 24.4 µM (inactive)

Structure (SMILES): COc1cc(OC)c(C2Nc3cccc4cccc(c34)N2)c(OC)c1
- IC50 [1]: 65.2 µM (active)
- IC50 [2]: 83.1 µM (inactive)
- IC50 (Nonstructural protein 1): > 100 µM (active)

Structure (SMILES): COc1cc(C2C(C(=O)c3ccc(C)o3)=C(O)C(=O)N2Cc2cccnc2)ccc1O (stereo unspecified)
- Ki (fMet-Leu-Phe receptor): > 66.7 µM (inactive)

Structure (SMILES): C[C@H](CO)N1C[C@H](C)[C@@H](CN(C)Cc2ccncc2)Oc2ccc(NC(=O)Nc3ccc(C(F)(F)F)cc3)cc2CC1=O
- AC50 [3]: 22.8 µM (active)
- AC50 [4]: > 70 µM (inactive)
- AC50 (Paired box protein Pax-8): 5.69 µM (active)
- AC50 [5]: 26.8 µM (active)
- AC50 [6]: 37.6 µM (active)
- AC50 [7]: 32.5 µM (active)

Structure (SMILES): COc1cccc(C2C(C(=O)c3ccc(OC)c(OC)c3)=C(O)C(=O)N2c2cc(C)on2)c1 (stereo unspecified)
- EC50 [8]: > 79.4 µM (not active)
- EC50 [9]: > 79.4 µM (not active)
- Ki (fMet-Leu-Phe receptor): > 66.7 µM (inactive)
- EC50 [10]: > 79.4 µM (inactive)

Structure (SMILES): CC(c1nc2ccccc2[nH]1)n1c(=O)c(-c2cccs2)nc2ccccc21 (stereo unspecified)
- EC50 (Kallikrein-7): 8.14 µM (active)
